Source: patent publication US9789130B2, “Method for blocking HIV entry into dendritic cells by inhibiting sialoadhesin-sialyllactose binding interactions with gangliosides” (LABORATORIOS DEL DR. ESTEVE, S.A., priority 2011, dated 2017)
Blank lines part the entries; values can stand above or below the compound they belong to.

Key:
Siglec-1 [1] = biological target: T1, Siglec-1 (Homo sapiens, UniProt Q9BZZ2); test: VLP capture by Siglec-1 transfected Raji B cells; format: cell-based; conditions: mAbs 10 μg/ml; sialyllactose at indicated concentrations, 30 min prior to VLP pulse
Procedure: Raji cells (2×10^6) were transfected with vector backbone pCMV6-Entry (Origene) comprising the coding region of Siglec-1, Siglec-5, or Siglec-7 using Amaxa nucleofector as recommended by the manufacturer. At 36 h posttransfection, cells were assessed for VLP capture and HIV-1 trans-infection (at a ratio 2:1) as described above. When indicated, cells were pre-incubated with decreasing concentrations of 3′-Sialyllactose (Carbosynth) or Lactose (Sigma-Aldrich) 30 min prior to VLP pulse. In experiments with envelope-deficient viruses, 5×10^5 cells were pulsed with 100 ng of p24^Gag estimated by ELISA for 4 h at 37° C. and assessed for capture and trans-infection (at a ratio 2:1) as aforementioned. HEK-293T cells were transfected using Fugene HD (Promega) and assessed 24 h posttransfection as described for Raji cells. Trans-infection of HEK-293T was tested in a different luminometer (Luminoskan Ascent, Thermo Labsystems), and collected data were normalized to 100%. Transfection efficiency in both cell types was assessed staining cells with anti-Siglec-1-PE 7-239 mAb, anti-Siglec-7-PE 5-386 mAb (AbD Serotec), and anti-Siglec-5/14-PE 1A5 mAb (Biolegend) and evaluated by FACS. Stable Raji DC-SIGN cells were labeled with anti-DC-SIGN-PE DCN46 mAb (BD Pharmigen).

mDCs = test: Lactose and GM3 polar head group treatment of mDCs before LUV/VLP capture; format: cell-based, human; conditions: mDCs pre-incubated with 5 to 10 mM compound, relative to mock-treated mDCs
Procedure: mDCs were preincubated with or without 5 or 10 mM of lactose (Sigma-Aldrich Co., Saint Louis, Mo., US) and soluble GM3 carbohydrate head group (Carbosynth Ltd., Compton, Berkshire, GB) for 30 min at RT. Cells were then pulsed with 50 μM of GM3-containing LUVHIv-tRed and 75 ng of sucrose-pelleted VLPHIv-Gag-eGFP Gag for 2 h at 37° C., at a final concentration of 5 or 10 mM for the compounds tested. Cells were analyzed by FACS as described previously.

Siglec-1 [2] = biological target: T1, Siglec-1; test: VLP capture by LPS mDCs pre-incubated with α-Siglec-1 mAbs; format: cell-based; set-up: Siglec-1 expressed in LPS mDCs capture distinct ganglioside containing vesicles; endogenous in cells; host or cells: LPS-matured monocyte-derived dendritic cells (LPS mDCs) from donor PBMCs; conditions: 2 μg/ml mAb 7D2 treated with at least 100-fold molar excess of human recombinant protein
Procedure: FIG. 11. Siglec-1 expressed in LPS mDCs capture distinct ganglioside containing vesicles, such as HIV-1 viral-like particles, liposomes, and exosomes. Capture of VLPHIV-Gag-eGFP by LPS mDCs that had been pre-incubated with decreasing concentrations of α-Siglec-1 mAb 7D2 before VLP exposure for 30 min at 37° C.
FIG. 12. Capture of VLPHIV-Gag-eGFP by LPS mDCs that had been pre-incubated with or without 2 μg/ml of α-Siglec-1 mAb 7D2 previously treated or not with at least a 100-fold molar excess of the indicated human recombinant proteins. Of note, Siglec-14 shares 100% of amino acid homology with Siglec-5 in the V-set domain.
FIG. 13. Blocking effect of α-Siglec-1 mAb 7-239. (A) Capture of VLPHIV-Gag-eGFP by LPS mDCs that had been pre-incubated with decreasing concentrations of α-Siglec-1 mAb 7-239 before VLP exposure for 30 min at 37° C. […] (B) Capture of VLPHIV-Gag-eGFP by LPS mDCs that had been pre-incubated with 10 μg/ml of the indicated mAbs before VLP exposure for 3 h at 37° C.

T1 sequence (Q9BZZ2 20-1709): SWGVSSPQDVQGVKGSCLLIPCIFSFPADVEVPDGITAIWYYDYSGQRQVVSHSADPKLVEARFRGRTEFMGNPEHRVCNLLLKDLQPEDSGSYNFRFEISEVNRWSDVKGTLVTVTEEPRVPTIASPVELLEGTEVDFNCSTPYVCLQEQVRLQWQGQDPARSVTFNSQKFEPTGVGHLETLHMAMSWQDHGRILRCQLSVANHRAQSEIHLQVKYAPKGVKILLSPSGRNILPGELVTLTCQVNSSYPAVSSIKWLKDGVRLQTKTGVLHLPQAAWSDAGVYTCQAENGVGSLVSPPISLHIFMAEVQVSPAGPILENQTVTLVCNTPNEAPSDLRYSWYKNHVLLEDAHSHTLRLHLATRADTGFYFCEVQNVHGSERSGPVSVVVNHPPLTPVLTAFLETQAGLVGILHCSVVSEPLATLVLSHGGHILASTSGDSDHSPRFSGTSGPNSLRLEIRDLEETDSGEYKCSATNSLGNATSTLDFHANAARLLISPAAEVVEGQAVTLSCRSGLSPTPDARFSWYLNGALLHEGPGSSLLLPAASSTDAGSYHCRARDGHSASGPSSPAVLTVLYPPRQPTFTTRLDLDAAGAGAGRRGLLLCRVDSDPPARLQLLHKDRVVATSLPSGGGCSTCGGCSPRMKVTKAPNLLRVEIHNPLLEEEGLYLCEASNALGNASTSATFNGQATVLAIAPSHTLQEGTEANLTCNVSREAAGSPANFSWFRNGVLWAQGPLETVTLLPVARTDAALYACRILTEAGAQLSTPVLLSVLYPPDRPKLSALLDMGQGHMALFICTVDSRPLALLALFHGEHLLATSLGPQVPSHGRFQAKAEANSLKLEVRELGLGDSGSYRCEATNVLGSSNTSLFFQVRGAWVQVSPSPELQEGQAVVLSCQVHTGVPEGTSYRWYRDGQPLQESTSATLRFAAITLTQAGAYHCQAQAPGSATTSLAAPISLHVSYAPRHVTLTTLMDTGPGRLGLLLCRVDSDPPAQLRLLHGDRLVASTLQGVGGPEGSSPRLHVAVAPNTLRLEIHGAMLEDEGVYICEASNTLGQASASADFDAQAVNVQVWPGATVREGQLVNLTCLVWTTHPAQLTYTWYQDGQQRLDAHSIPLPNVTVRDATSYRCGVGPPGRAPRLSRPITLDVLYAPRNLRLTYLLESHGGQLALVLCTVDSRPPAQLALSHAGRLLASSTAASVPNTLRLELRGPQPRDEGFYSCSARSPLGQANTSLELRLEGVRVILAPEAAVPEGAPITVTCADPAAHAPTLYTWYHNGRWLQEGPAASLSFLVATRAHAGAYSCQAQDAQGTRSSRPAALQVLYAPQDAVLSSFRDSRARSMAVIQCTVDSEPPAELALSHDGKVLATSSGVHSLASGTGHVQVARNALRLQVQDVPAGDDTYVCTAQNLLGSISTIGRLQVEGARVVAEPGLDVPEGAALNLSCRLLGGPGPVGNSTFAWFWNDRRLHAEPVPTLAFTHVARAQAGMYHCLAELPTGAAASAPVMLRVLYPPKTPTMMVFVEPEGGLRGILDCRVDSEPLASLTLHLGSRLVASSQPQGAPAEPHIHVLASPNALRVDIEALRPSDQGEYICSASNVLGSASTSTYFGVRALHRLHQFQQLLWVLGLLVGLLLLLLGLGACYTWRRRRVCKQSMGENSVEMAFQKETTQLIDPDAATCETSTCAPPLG

VLPHIV-Gag-eGFP capture by Siglec-1 transfected Raji cells after pre-incubation with inhibitor (Siglec-1 [1]): blocked VLP capture
Compound: CC(=O)N[C@H]1[C@H]([C@H](O)[C@H](O)CO)O[C@@](O[C@H]2[C@@H](O)[C@@H](CO)O[C@@H](O[C@H]3[C@H](O)[C@@H](O)C(O)O[C@@H]3CO)[C@@H]2O)(C(=O)O)C[C@@H]1O (stereo partly drawn) [sialyllactose, 3′-Sialyllactose]

Compound: CC(=O)N[C@H]1[C@H]([C@H](O)[C@H](O)CO)O[C@@](O[C@H]2[C@@H](O)[C@@H](CO)O[C@@H](O[C@H]3[C@H](O)[C@@H](O)C(O)O[C@@H]3CO)[C@@H]2O)(C(=O)O)C[C@@H]1O (stereo partly drawn) [soluble GM3]
capture of GM3-containing LUVHIV-tRed by mDCs in the presence of soluble carbohydrate (mDCs): completely blocked | capture of VLPHIV-Gag-eGFP by mDCs in the presence of soluble carbohydrate (mDCs): completely blocked | capture of GM3-containing LUVHIV-tRed by mDCs in the presence of soluble carbohydrate (mDCs; listed as GM3 polar head group): captured less particles | capture of VLPHIV-Gag-eGFP by mDCs in the presence of soluble carbohydrate (mDCs; listed as GM3 polar head group): captured less particles

VLP capture by LPS mDCs with mAb 7D2 pre-incubated with purified protein (Siglec-1 [2]): completely restored VLP capture
Compound: purified Siglec-1: human recombinant Siglec-1 protein used to pre-treat mAb 7D2
